The text below walks through data of the supplement of paper PMC10307832.

Common to all, as to assay: relative viability (nuclei count vs DMSO), 5 days (fraction); higher = more cells survive
Compound in the experiment “AZ505 + Decitabine”: C1CCC(CC1)N(CCNCCC2=C3C(=C(C=C2)O)NC(=O)CO3)C(=O)CCNCCC4=CC(=C(C=C4)Cl)Cl [AZ505] + Nc1ncn([C@H]2C[C@H](O)[C@@H](CO)O2)c(=O)n1 [Decitabine] (partner 2 µM)
An outline of the steps:
(§1)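 A single step with final 0.05% Triton X-100, 1% formaldehyde and 1 ug/ml Hoechst fixed the cells and stained nuclei 5 days after treatment. Lung cancer cell lines in 1536-well plates had been treated by pin tool the day after seeding with one drug alone or a fixed anchor-drug dose plus five library-drug doses (not always all listed) in √10 steps, and nuclei were counted on 4× images. Relative viability is the ratio of nuclei in treated wells to nuclei in vehicle wells, taken as the median of duplicate plates.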

Compound in the experiment “AZ505 + Foretinib”: C1CCC(CC1)N(CCNCCC2=C3C(=C(C=C2)O)NC(=O)CO3)C(=O)CCNCCC4=CC(=C(C=C4)Cl)Cl [AZ505] + COc1cc2c(Oc3ccc(NC(=O)C4(C(=O)Nc5ccc(F)cc5)CC4)cc3F)ccnc2cc1OCCCN1CCOCC1 [Foretinib] (partner 0.25 µM)
The method, boiled down:
as §1

Compound in the experiment “Dactolisib + Navitoclax”: Cn1c(=O)n(-c2ccc(C(C)(C)C#N)cc2)c2c3cc(-c4cnc5ccccc5c4)ccc3ncc21 [Dactolisib] + CC1(C)CCC(c2ccc(Cl)cc2)=C(CN2CCN(c3ccc(C(=O)NS(=O)(=O)c4ccc(N[C@H](CCN5CCOCC5)CSc5ccccc5)c(S(=O)(=O)C(F)(F)F)c4)cc3)CC2)C1 [Navitoclax] (partner 0.5 µM)
The method, boiled down: as §1

Compound in the experiment “Dactolisib + Decitabine”: Cn1c(=O)n(-c2ccc(C(C)(C)C#N)cc2)c2c3cc(-c4cnc5ccccc5c4)ccc3ncc21 [Dactolisib] + Nc1ncn([C@H]2C[C@H](O)[C@@H](CO)O2)c(=O)n1 [Decitabine] (partner 2 µM)
The method, boiled down:
as §1

As for NCI-H322M, the relative viability with AZ505 + Decitabine (first compound 0.08 µM) was determined as 0.679; in the experiment with AZ505 + Decitabine (first compound 0.8 µM) it was 0.67; with AZ505 + Decitabine (first compound 2.53 µM), 0.677; in the experiment with AZ505 + Decitabine (first compound 8 µM) it was 0.76; with AZ505 + Foretinib (first compound 0.08 µM), 0.889; in the experiment with AZ505 + Foretinib (first compound 0.253 µM) it was 1. Further, the relative viability with AZ505 + Foretinib (first compound 0.8 µM) amounted to 0.952; in the experiment with AZ505 + Foretinib (first compound 2.53 µM), 0.946; with AZ505 + Foretinib (first compound 8 µM) it was 1.1; with Dactolisib + Navitoclax (first compound 0.002 µM) it was 1.22; with Dactolisib + Navitoclax (first compound 0.006325 µM) it was 1.17; with Dactolisib + Navitoclax (first compound 0.02 µM), 1.16. Further, the relative viability came out at 0.733 with Dactolisib + Navitoclax (first compound 0.06325 µM); 0.677 with Dactolisib + Navitoclax (first compound 0.2 µM); 0.759 with Dactolisib + Decitabine (first compound 0.002 µM); 0.712 in the experiment with Dactolisib + Decitabine (first compound 0.006325 µM); 0.631 with Dactolisib + Decitabine (first compound 0.02 µM); 0.661 in the experiment with Dactolisib + Decitabine (first compound 0.06325 µM). Moreover, the relative viability in the experiment with Dactolisib + Decitabine (first compound 0.2 µM) stood at 0.608.

Consider NCI-H520, for which the relative viability in the experiment with AZ505 + Decitabine (first compound 0.08 µM) is 0.458; with AZ505 + Decitabine (first compound 0.253 µM), 0.583; in the experiment with AZ505 + Decitabine (first compound 0.8 µM), 0.465; with AZ505 + Decitabine (first compound 2.53 µM) it was 0.519; with AZ505 + Decitabine (first compound 8 µM), 0.601; with AZ505 + Foretinib (first compound 0.08 µM), 0.625. Besides, the relative viability is 0.756 with AZ505 + Foretinib (first compound 0.253 µM); 0.76 with AZ505 + Foretinib (first compound 0.8 µM); 0.772 with AZ505 + Foretinib (first compound 2.53 µM); 0.745 with AZ505 + Foretinib (first compound 8 µM); 1.01 with Dactolisib + Navitoclax (first compound 0.002 µM); 0.871 with Dactolisib + Navitoclax (first compound 0.006325 µM). The relative viability with Dactolisib + Navitoclax (first compound 0.02 µM) was found to be 0.633; with Dactolisib + Navitoclax (first compound 0.06325 µM), 0.261; with Dactolisib + Navitoclax (first compound 0.2 µM) it was 0.184; with Dactolisib + Decitabine (first compound 0.002 µM), 0.527; with Dactolisib + Decitabine (first compound 0.006325 µM) it was 0.476; with Dactolisib + Decitabine (first compound 0.02 µM) it was 0.456. Moreover, the relative viability in the experiment with Dactolisib + Decitabine (first compound 0.06325 µM) turned out to be 0.206; with Dactolisib + Decitabine (first compound 0.2 µM) it was 0.156.

For the cell line NCI-H1666, the relative viability with AZ505 + Decitabine (first compound 0.08 µM) is 0.69; in the experiment with AZ505 + Decitabine (first compound 0.253 µM), 0.667; with AZ505 + Decitabine (first compound 0.8 µM), 0.752; in the experiment with AZ505 + Decitabine (first compound 2.53 µM) it was 0.659; with AZ505 + Decitabine (first compound 8 µM), 0.694; with AZ505 + Foretinib (first compound 0.08 µM), 0.946. The relative viability in the experiment with AZ505 + Foretinib (first compound 0.253 µM) came out at 1.01; in the experiment with AZ505 + Foretinib (first compound 0.8 µM), 0.917; with AZ505 + Foretinib (first compound 2.53 µM) it was 0.9; in the experiment with AZ505 + Foretinib (first compound 8 µM), 0.95; in the experiment with Dactolisib + Navitoclax (first compound 0.002 µM) it was 1.3; with Dactolisib + Navitoclax (first compound 0.006325 µM), 0.673. Also, the relative viability in the experiment with Dactolisib + Navitoclax (first compound 0.02 µM) was found to be 0.927; with Dactolisib + Navitoclax (first compound 0.06325 µM), 0.667; in the experiment with Dactolisib + Navitoclax (first compound 0.2 µM), 0.31; in the experiment with Dactolisib + Decitabine (first compound 0.002 µM) it was 0.836; with Dactolisib + Decitabine (first compound 0.006325 µM), 0.714; in the experiment with Dactolisib + Decitabine (first compound 0.02 µM), 0.756. Further, the relative viability in the experiment with Dactolisib + Decitabine (first compound 0.06325 µM) was 0.607; with Dactolisib + Decitabine (first compound 0.2 µM), 0.596.

Consider NCI-H1993, for which the relative viability with AZ505 + Decitabine (first compound 0.08 µM) came out at 0.595; with AZ505 + Decitabine (first compound 0.253 µM), 0.602; with AZ505 + Decitabine (first compound 0.8 µM), 0.575; in the experiment with AZ505 + Decitabine (first compound 2.53 µM), 0.617; with AZ505 + Decitabine (first compound 8 µM), 0.594; with AZ505 + Foretinib (first compound 0.08 µM), 0.764. The relative viability in the experiment with AZ505 + Foretinib (first compound 0.253 µM) worked out at 0.702; with AZ505 + Foretinib (first compound 0.8 µM) it was 0.731; in the experiment with AZ505 + Foretinib (first compound 2.53 µM), 0.846; with AZ505 + Foretinib (first compound 8 µM) it was 0.963; in the experiment with Dactolisib + Navitoclax (first compound 0.002 µM), 0.827; with Dactolisib + Navitoclax (first compound 0.006325 µM), 0.846. Moreover, the relative viability with Dactolisib + Navitoclax (first compound 0.02 µM) stood at 0.625; with Dactolisib + Navitoclax (first compound 0.06325 µM) it was 0.537; in the experiment with Dactolisib + Navitoclax (first compound 0.2 µM), 0.626; in the experiment with Dactolisib + Decitabine (first compound 0.002 µM) it was 0.722; with Dactolisib + Decitabine (first compound 0.006325 µM), 0.503; with Dactolisib + Decitabine (first compound 0.02 µM) it was 0.511. Besides, the relative viability with Dactolisib + Decitabine (first compound 0.06325 µM) was 0.389; in the experiment with Dactolisib + Decitabine (first compound 0.2 µM) it was 0.46.

With NCI-H1975, the relative viability in the experiment with AZ505 + Decitabine (first compound 0.08 µM) worked out at 0.345; with AZ505 + Decitabine (first compound 0.253 µM), 0.355; with AZ505 + Decitabine (first compound 0.8 µM) it was 0.407; in the experiment with AZ505 + Decitabine (first compound 2.53 µM), 0.322; in the experiment with AZ505 + Decitabine (first compound 8 µM), 0.403; with AZ505 + Foretinib (first compound 0.08 µM) it was 0.889. In addition, the relative viability with AZ505 + Foretinib (first compound 0.253 µM) came to 0.928; with AZ505 + Foretinib (first compound 0.8 µM), 0.902; in the experiment with AZ505 + Foretinib (first compound 2.53 µM) it was 0.946; with AZ505 + Foretinib (first compound 8 µM), 0.96; with Dactolisib + Navitoclax (first compound 0.002 µM), 1.14; with Dactolisib + Navitoclax (first compound 0.006325 µM), 1.01. The relative viability came to 0.689 in the experiment with Dactolisib + Navitoclax (first compound 0.02 µM); 0.55 in the experiment with Dactolisib + Navitoclax (first compound 0.06325 µM); 0.362 with Dactolisib + Navitoclax (first compound 0.2 µM); 0.387 with Dactolisib + Decitabine (first compound 0.002 µM); 0.349 in the experiment with Dactolisib + Decitabine (first compound 0.006325 µM); 0.394 with Dactolisib + Decitabine (first compound 0.02 µM). Moreover, the relative viability was found to be 0.286 in the experiment with Dactolisib + Decitabine (first compound 0.06325 µM) and 0.25 in the experiment with Dactolisib + Decitabine (first compound 0.2 µM).
